Values joined by “and” are separate entries in the source; they are usually repeats but may differ in a detail not shown here. Identical values can stand only once.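 96-well plates; 48 h exposure; 5 concentrations. Endpoints by linear interpolation between flanking doses. Not reached: highest tested concentration assigned. GI50 marks 50% less growth. TGI is the concentration that stops growth completely.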
Columns and labels:
Assay in all cases: inhibition of tumour cell growth, NCI panel, 48 h
[1] = test system: HCC-2998 colon
[2] = test system: M14 melanoma
[3] = test system: HCT-116 colon
[4] = test system: HT29 colon
[5] = test system: BT-549 breast
[6] = test system: SR leukemia
[7] = test system: SK-OV-3 ovarian
[8] = test system: A549 NSCLC
[9] = test system: LOX IMVI melanoma
[10] = test system: SNB-75 CNS

Row | SMILES | GI50 [1] | TGI [1] | GI50 [2] [µM] | TGI [2] | GI50 [3] | TGI [3] | GI50 [4] | TGI [4] | GI50 [5] [µM] | TGI [5] | GI50 [6] [µM] | TGI [6] | GI50 [7] | TGI [7] | GI50 [8] | TGI [8] | GI50 [9] | TGI [9] | GI50 [10] | TGI [10]
1 | COc1ccc2c(c1)cn1c3ccc(OC)cc3[nH]c(=O)c21 | < 0.0188 µM | 0.0679 µM | 0.027 | 1.4 µM | < 0.0157 µM | 1.05 µM | < 0.0155 µM | 0.281 µM | 0.0407 | 1.17 µM | < 0.01 | 1.1 µM | < 0.0192 µM | 4.48 µM | < 0.0205 µM | 1.33 µM | < 0.0206 µM | 1.78 µM | 0.0203 µM | 1.19 µM
2 | CCc1cc(Cc2cc(CC)cc(C(C)(C)C)c2O)c(O)c(C(C)(C)C)c1 | 2.42 µM | 6.52 µM | 3.63 | 14.4 µM | 2.09 µM | 5.82 µM | 2.9 µM | 11.5 µM | 2.16 | 7.76 µM | 3.28 | 18.7 µM | 3.81 µM | 13.2 µM | 3.18 µM | 13.2 µM | 3.27 µM | 12 µM | 3.37 µM | 14.1 µM
3 | CC(NC(=O)C1(N)CCCC1)C(=O)O (centres undefined) | – | > 100 µM | – | > 100 µM | – | > 100 µM | – | > 100 µM | – | > 100 µM | – | > 100 µM | – | > 100 µM | – | > 100 µM | – | > 100 µM | – | > 100 µM
4 | Nc1c2c(c(O)c3c1=C(CO)C=N3)=NCCS2=O (centres undefined) | 1.21 µM | 2.81 µM | 1.59 | 3.09 µM | 2.25 µM | 4.95 µM | 1.78 µM | 4.46 µM | 1.69 | 3.1 µM | 1.76 | 9.33 µM | 3.11 µM | 10.9 µM | 1.72 µM | 3.55 µM | 1.58 µM | 4.03 µM | 1.74 µM | 3.18 µM
5 | N[C@@H](Cc1ccc(N(CCCl)CCCl)cc1)C(=O)O | 75.5 µM and 22.1 µM | > 100 µM and 62.2 µM and 95.4 µM | 17.3 | > 100 µM and 84.2 µM | 25.4 µM and 20.9 µM | > 100 µM and 51.1 µM and 137 µM | 54.2 µM and 42.3 µM | > 100 µM and 235 µM | 27.8 | > 100 µM and 100 µM | – | 39.1 µM and 71.4 µM | 19.3 µM and 13.9 µM | > 100 µM and 35.6 µM and 85.9 µM | 23.9 µM and 16.7 µM | > 100 µM and > 90.2 µM and 186 µM | 6.5 µM and 11.9 µM | > 100 µM and 57.2 µM and 96.3 µM | 16.3 µM and 14.4 µM | 95.9 µM and > 51.6 µM and 123 µM
6 | COc1ccccc1NC(=O)C(=O)C(C#N)CC(C)(C)C=O (centres undefined) | – | > 100 µM | – | > 100 µM | – | > 100 µM | – | > 100 µM | – | > 100 µM | – | > 100 µM | – | > 100 µM | – | > 100 µM | – | > 100 µM | – | > 100 µM
7 | O=P1(NCCCl)OCCC(OO)N1CCCl (centres undefined) | – | > 100 µM | – | > 57 µM | – | 33.6 µM | – | > 81.9 µM | – | > 100 µM | – | > 100 µM | – | > 100 µM | – | > 100 µM | – | 37.5 µM | – | 97 µM

From PubChem BioAssay (NCI)
